Experimental findings from ChEMBL document CHEMBL1806420, “Design, synthesis and antimycobacterial evaluation of novel 3-substituted-N-aryl-6,7-dimethoxy-3a,4-dihydro-3H-indeno[1,2-c]pyrazole-2-carboxamide analogues” (Bioorg Med Chem Lett, 2011) are described below.

≈ marks a conversion by molar mass, not a printed value. Where only a bound is given, the exact number is not on record here.

One experiment relates to Mycobacterium tuberculosis. In words: Antimycobacterial activity against isoniazid-resistant Mycobacterium tuberculosis by agar dilution method. The class given is functional.
The term MIC denotes the smallest concentration in the dilution series that meets the test's criterion for growth inhibition. In the case of `COc1cc2c(cc1OC)C1=NN(C(=O)Nc3ccc(F)c(Cl)c3)C(c3ccccc3)C1C2` (centres undefined), the minimal inhibitory concentration (MIC) was 12.5 µM (≈ 5.82 µg/mL).
The same measure, in the same setting: the same measure for `COc1ccc(C2C3Cc4cc(OC)c(OC)cc4C3=NN2C(=O)Nc2ccc(F)c(Cl)c2)cc1` (centres undefined): 12.5 µM (≈ 6.2 µg/mL); for `COc1cc2c(cc1OC)C1=NN(C(=O)Nc3ccc(F)cc3)C(c3ccncc3)C1C2` (centres undefined): 6.25 µM (≈ 2.7 µg/mL); for `COc1cc2c(cc1OC)C1=NN(C(=O)Nc3ccc(F)cc3)C(c3ccccc3Cl)C1C2` (centres undefined): 12.5 µM (≈ 5.82 µg/mL).
Same read-out and setting: the same measure for `COc1cc2c(cc1OC)C1=NN(C(=O)Nc3ccc(F)cc3)C(c3ccc(F)cc3)C1C2` (centres undefined): 0.78 µM (≈ 0.351 µg/mL); for `COc1cc2c(cc1OC)C1=NN(C(=O)Nc3ccc(F)cc3)C(c3ccccc3)C1C2` (centres undefined): 10 µM (≈ 4.31 µg/mL); for `COc1ccc(C2C3Cc4cc(OC)c(OC)cc4C3=NN2C(=O)Nc2ccc(F)cc2)cc1` (centres undefined): 12.5 µM (≈ 5.77 µg/mL).
`COc1cc2c(cc1OC)C1=NN(C(=O)Nc3ccc(Br)cc3)C(c3ccncc3)C1C2` (centres undefined) came in with an MIC of 10 µM (≈ 4.93 µg/mL).
Still for that read-out and setting: then `COc1cc2c(cc1OC)C1=NN(C(=O)Nc3ccc(Br)cc3)C(c3ccccc3Cl)C1C2` (centres undefined), with 10 µM (≈ 5.27 µg/mL); and `COc1cc2c(cc1OC)C1=NN(C(=O)Nc3ccc(Br)cc3)C(c3ccc(F)cc3)C1C2` (centres undefined), with 6.25 µM (≈ 3.19 µg/mL).
On the same count and under the same terms, the same measure for `COc1cc2c(cc1OC)C1=NN(C(=O)Nc3ccc(Br)cc3)C(c3ccccc3)C1C2` (centres undefined): above 10 µM; for `COc1cc2c(cc1OC)C1=NN(C(=O)Nc3ccc(F)c(Cl)c3)C(c3ccncc3)C1C2` (centres undefined): 10 µM (≈ 4.67 µg/mL).
Still for that read-out and setting: then `COc1cc2c(cc1OC)C1=NN(C(=O)Nc3ccc(F)c(Cl)c3)C(c3ccccc3Cl)C1C2` (centres undefined), with 12.5 µM (≈ 6.25 µg/mL); and `COc1cc2c(cc1OC)C1=NN(C(=O)Nc3ccc(F)c(Cl)c3)C(c3ccc(F)cc3)C1C2` (centres undefined), with 3.12 µM (≈ 1.51 µg/mL); and `COc1ccc(C2C3Cc4cc(OC)c(OC)cc4C3=NN2C(=O)Nc2ccc(F)c(Cl)c2)cc1OC` (centres undefined), with 12.5 µM (≈ 6.57 µg/mL).
In turn, `NNC(=O)c1ccncc1` [ISONIAZID] registered an MIC of 12.5 µM (≈ 1.71 µg/mL). In other words, the double-digit micromolar range.
On to `CO[C@H]1/C=C/O[C@@]2(C)Oc3c(C)c(O)c4c(O)c(c(/C=N/N5CCN(C)CC5)c(O)c4c3C2=O)NC(=O)/C(C)=C\C=C\[C@H](C)[C@H](O)[C@@H](C)[C@@H](O)[C@@H](C)[C@H](OC(C)=O)[C@@H]1C` [RIFAMPIN], for which the MIC was 3.12 µM (≈ 2.57 µg/mL).

The subject of another experiment is Mycobacterium tuberculosis. In words: Ratio of isoniazid MIC to compound MIC for isoniazid-resistant Mycobacterium tuberculosis. The class given is functional.
`COc1cc2c(cc1OC)C1=NN(C(=O)Nc3ccc(F)cc3)C(c3ccc(F)cc3)C1C2` (centres undefined): the Ratio is reported as 16.
On the same count and under the same terms, the same measure for `COc1cc2c(cc1OC)C1=NN(C(=O)Nc3ccc(F)c(Cl)c3)C(c3ccc(F)cc3)C1C2` (centres undefined): 4.
